Test results: BindingDB's records for doi:10.1021/jm060166w (University of Tours, 2006)
pKi: −log10 of the molar value.

Molecular target: 5-hydroxytryptamine receptor 1A (Sus scrofa)
Assay: Displacement of [3H]8-OH-DPAT from 5HT1A receptor in porcine cortical membrane

pKi: 5.44
Compound: Fc1ccc(N2CCN(Cc3cn4ccccc4n3)CC2)cc1 [2-[4-(4-fluorophenyl)piperazin-1-ylmethyl]imidazo[1,2-a]pyridine]
